According to ChEMBL document CHEMBL1201862, “PubChem BioAssay data set” (2004):
Active and inactive are the calls of the source.

Tests used:
[1] = target: T1, Methionyl-tRNA synthetase, putative (Trypanosoma brucei brucei, UniProt Q38C91); assay type: functional, Trypanosoma brucei brucei strain 927/4 GUTat10.1
[2] = Counterscreen for inhibitors of Trypanosoma brucei methionyl tRNA synthetase (MetRS): Luminescence-based cell-based high throughput dose response assay to identify compounds that are cytotoxic to Jurkat human T lymphocyte cells.; assay type: functional
[3] = target: T1, Methionyl-tRNA synthetase, putative; assay type: functional, Trypanosoma brucei brucei strain 927/4 GUTat10.1; remark: listed apart in the source
[4] = NIH/3T3 fibroblast cytotoxicity, dose response, cytotoxicity control for T. cruzi growth inhibitor project, cell-based, cherry-pick samples, set 2 (AID 651817); assay type: functional; conditions: NIH3T3
[5] = target: Potassium voltage-gated channel subfamily KQT member 2 (Rattus norvegicus, UniProt O88943); test: KCNQ2 potassium channel inhibitors, dose response, cell-based, automated electrophysiology, set II, rat KCNQ2 (AID 588637); assay type: functional
[6] = target: T2, SUMO-activating enzyme (Homo sapiens, UniProt Q9UBT2); test: SUMOylation inhibitor hit validation, confirmation, SUMOylation inhibitor project, biochemical, AlphaScreen (AID 2018); assay type: functional
[7] = target: T2, SUMO-activating enzyme; test: inhibitors of in vitro SUMOylation cascade, primary screen, biochemical, HTRF, uHTS (AID 2006); assay type: protein-complex assay
[8] = target: T3, Sentrin-specific protease 8 (Homo sapiens, UniProt Q96LD8); assay type: functional
T3 sequence (Q96LD8 whole entry): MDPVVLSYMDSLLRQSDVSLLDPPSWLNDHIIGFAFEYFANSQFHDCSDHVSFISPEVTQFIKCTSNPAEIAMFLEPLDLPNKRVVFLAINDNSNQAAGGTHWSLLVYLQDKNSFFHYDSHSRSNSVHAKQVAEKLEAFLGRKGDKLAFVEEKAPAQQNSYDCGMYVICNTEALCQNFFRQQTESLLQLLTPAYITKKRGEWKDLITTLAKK

[9] = target: T3, Sentrin-specific protease 8; assay type: functional; remark: listed apart in the source
[10] = target: Ras and Rab interactor 1/Tyrosine-protein kinase ABL1 (Homo sapiens, UniProt P00519+Q13671); assay type: functional;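 note: biochemical TR-FRET dose-response test measuring inhibition of binding between Rin1 and Abl proteins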
[11] = target: Tyrosine-protein phosphatase non-receptor type 11 (Homo sapiens, UniProt Q06124); test: SHP2 phosphatase inhibition, dose response, selectivity assay for STEP inhibitor project, biochemical (AID 602367); assay type: functional; conditions: read-out: IC50_Mean
[12] = target: Tyrosine-protein phosphatase non-receptor type 5 (Homo sapiens, UniProt P54829); test: STEP phosphatase inhibitors, confirmation, biochemical, fluorescence intensity, uHTS hits (AID 602372); assay type: functional; conditions: read-out: IC50_Mean
[13] = target: Dual specificity protein phosphatase 3 (Homo sapiens, UniProt P51452); test: VHR phosphatase inhibition, dose response, selectivity assay for STEP inhibitor project, biochemical (AID 602374); assay type: functional; conditions: read-out: IC50_Mean
[14] = target: Aryl hydrocarbon receptor (Homo sapiens, UniProt P35869); conditions: Potency;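 note: confirmatory quantitative high-throughput screen measuring activation of the AhR signaling pathway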

T2 sequence (Q9UBE0 whole entry): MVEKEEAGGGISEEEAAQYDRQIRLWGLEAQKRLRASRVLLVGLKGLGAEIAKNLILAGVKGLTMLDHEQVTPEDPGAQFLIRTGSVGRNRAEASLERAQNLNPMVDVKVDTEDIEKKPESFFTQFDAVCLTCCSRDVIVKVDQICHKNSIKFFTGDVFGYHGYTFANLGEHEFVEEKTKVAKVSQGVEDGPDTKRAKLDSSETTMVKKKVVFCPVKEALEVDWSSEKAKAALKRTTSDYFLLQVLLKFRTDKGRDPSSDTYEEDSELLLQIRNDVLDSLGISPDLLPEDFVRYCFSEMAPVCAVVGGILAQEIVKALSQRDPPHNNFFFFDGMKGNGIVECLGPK
T2 sequence (Q9UBT2 whole entry): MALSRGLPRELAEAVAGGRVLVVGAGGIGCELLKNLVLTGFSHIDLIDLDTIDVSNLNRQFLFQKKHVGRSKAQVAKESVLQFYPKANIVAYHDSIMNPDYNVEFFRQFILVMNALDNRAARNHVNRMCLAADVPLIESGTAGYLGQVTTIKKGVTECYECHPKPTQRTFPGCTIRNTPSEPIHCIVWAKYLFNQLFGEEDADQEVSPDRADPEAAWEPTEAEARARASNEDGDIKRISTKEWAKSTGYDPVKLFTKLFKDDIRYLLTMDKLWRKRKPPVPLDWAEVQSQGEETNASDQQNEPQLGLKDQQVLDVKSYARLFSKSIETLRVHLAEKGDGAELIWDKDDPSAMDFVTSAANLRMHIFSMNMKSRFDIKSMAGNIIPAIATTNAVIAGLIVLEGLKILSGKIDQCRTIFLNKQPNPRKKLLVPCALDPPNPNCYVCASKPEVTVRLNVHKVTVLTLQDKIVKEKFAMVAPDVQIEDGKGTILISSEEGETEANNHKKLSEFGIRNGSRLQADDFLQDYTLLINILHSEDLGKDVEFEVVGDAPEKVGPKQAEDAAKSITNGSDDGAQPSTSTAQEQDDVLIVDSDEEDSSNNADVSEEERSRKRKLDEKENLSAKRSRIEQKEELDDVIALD
T1 sequence (Q38C91 whole entry): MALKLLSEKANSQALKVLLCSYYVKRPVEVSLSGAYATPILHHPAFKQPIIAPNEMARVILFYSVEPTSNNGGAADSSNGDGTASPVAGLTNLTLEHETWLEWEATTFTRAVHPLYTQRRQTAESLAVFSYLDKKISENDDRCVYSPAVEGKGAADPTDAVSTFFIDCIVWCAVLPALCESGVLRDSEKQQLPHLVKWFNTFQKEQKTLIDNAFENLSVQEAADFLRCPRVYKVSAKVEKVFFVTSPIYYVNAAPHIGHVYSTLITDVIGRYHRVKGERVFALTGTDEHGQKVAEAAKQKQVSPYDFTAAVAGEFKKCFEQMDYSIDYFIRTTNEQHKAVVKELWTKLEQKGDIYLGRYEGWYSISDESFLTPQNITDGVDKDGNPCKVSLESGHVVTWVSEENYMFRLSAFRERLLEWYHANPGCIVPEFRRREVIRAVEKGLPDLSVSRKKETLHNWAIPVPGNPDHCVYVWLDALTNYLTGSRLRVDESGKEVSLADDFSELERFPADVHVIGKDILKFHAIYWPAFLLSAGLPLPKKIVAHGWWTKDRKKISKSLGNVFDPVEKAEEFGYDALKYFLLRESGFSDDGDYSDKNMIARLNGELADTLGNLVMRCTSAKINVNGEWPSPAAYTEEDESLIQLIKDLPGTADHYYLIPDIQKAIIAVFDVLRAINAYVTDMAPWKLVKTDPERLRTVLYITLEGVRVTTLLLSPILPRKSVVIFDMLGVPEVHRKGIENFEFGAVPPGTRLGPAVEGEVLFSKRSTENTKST
Chain of Tyrosine-protein phosphatase non-receptor type 5 (P54829 whole entry): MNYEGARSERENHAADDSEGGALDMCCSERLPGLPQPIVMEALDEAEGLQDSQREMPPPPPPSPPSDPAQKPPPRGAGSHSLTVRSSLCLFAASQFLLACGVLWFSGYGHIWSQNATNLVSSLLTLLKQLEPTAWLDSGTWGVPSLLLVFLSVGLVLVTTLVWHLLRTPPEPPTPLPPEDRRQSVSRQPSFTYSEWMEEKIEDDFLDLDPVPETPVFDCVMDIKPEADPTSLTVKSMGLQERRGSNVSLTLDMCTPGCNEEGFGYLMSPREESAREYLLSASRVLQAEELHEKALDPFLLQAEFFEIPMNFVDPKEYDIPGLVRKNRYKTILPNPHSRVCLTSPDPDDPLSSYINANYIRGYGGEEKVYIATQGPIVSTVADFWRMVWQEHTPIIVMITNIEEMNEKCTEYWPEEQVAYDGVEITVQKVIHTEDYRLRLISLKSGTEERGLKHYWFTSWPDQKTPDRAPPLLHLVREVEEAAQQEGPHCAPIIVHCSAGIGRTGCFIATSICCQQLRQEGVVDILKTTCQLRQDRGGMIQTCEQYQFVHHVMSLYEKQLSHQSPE
Chain of Ras and Rab interactor 1/Tyrosine-protein kinase ABL1 (P00519 whole entry): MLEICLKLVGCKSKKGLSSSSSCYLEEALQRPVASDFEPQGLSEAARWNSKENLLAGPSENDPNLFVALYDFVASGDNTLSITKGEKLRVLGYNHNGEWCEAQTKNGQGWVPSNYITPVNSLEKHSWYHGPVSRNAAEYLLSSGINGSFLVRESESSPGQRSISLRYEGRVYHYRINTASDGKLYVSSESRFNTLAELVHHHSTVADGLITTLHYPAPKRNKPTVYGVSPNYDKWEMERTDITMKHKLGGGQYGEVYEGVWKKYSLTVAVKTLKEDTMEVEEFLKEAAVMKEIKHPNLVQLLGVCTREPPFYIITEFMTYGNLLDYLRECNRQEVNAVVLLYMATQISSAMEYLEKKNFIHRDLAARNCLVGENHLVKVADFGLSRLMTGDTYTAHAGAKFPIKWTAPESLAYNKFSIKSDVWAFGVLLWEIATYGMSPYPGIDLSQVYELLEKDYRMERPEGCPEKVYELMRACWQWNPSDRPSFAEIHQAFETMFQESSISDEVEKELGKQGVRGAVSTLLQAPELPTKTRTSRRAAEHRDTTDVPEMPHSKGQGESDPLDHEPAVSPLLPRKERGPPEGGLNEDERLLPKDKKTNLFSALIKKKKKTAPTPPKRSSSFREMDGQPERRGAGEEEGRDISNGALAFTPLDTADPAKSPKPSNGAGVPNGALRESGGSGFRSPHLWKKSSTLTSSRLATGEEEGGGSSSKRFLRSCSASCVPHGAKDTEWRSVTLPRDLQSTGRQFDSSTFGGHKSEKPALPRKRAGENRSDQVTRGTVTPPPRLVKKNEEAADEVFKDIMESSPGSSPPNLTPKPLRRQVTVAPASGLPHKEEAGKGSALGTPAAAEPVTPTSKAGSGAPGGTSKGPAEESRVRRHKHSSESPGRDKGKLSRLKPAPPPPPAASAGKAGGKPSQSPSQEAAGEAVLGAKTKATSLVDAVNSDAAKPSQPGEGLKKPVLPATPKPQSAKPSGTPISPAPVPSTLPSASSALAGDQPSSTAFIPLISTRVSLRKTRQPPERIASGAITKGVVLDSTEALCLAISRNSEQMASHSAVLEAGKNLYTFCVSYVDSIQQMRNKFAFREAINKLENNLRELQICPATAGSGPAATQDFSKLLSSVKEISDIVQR
Chain of Ras and Rab interactor 1/Tyrosine-protein kinase ABL1 (Q13671 whole entry): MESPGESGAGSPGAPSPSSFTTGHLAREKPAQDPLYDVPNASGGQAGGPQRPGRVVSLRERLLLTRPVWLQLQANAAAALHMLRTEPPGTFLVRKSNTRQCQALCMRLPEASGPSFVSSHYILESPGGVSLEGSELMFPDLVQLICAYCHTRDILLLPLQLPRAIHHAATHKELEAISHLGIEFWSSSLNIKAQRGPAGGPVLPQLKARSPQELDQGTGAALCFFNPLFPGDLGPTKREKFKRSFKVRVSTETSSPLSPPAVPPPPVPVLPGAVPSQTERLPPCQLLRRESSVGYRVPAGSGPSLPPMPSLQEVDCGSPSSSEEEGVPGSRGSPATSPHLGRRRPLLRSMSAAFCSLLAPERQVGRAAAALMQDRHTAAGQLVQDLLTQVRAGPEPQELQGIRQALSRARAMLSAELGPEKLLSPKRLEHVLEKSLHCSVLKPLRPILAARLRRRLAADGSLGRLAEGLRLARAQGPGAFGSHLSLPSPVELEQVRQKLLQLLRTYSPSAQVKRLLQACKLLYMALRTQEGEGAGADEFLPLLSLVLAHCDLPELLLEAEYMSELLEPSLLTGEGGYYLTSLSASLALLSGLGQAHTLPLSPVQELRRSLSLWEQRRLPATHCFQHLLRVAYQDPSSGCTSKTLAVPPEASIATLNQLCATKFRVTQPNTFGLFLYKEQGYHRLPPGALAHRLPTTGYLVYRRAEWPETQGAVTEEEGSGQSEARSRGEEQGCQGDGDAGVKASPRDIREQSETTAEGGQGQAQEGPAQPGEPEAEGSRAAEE
Chain of Dual specificity protein phosphatase 3 (P51452 whole entry): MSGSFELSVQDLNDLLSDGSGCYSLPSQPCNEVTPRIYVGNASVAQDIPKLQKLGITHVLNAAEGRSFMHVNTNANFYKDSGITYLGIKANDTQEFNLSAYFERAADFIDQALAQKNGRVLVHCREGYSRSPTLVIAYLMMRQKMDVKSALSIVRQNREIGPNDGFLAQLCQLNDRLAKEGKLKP
Chain of Tyrosine-protein phosphatase non-receptor type 11 (Q06124 whole entry): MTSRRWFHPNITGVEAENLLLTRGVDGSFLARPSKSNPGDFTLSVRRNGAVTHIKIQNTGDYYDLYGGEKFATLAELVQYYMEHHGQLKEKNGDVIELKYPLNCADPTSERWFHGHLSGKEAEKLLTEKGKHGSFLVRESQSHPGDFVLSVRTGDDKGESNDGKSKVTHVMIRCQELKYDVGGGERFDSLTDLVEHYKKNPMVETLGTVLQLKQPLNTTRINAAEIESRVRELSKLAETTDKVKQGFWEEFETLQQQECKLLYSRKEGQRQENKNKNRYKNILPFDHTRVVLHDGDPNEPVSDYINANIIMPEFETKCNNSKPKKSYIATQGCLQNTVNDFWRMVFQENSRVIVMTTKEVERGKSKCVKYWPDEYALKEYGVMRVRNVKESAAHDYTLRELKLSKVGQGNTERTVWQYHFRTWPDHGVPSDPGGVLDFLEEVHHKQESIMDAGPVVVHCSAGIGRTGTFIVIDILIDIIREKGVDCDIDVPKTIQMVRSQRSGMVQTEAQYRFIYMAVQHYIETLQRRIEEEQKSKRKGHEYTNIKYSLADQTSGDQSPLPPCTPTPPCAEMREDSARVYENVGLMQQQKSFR

COc1ccccc1NC(=O)c1ccc(-n2ccnc2)c([N+](=O)[O-])c1
IC50 [1]: 55.4 µM (inactive)
IC50 [2]: 83.3 µM (inactive)
IC50 [3]: 29 µM (inactive)

C[C@H](CO)N1C[C@H](C)[C@H](CN(C)Cc2ccc(C(F)(F)F)cc2)Oc2c(NC(=O)c3ccncc3)cccc2C1=O
AC50 [4]: 39 µM (inactive)

CCOC(=O)N1CCC(N(CCOC)C(=O)Nc2ccc(C)c(C)c2)CC1
IC50 [5]: 477 nM (active)

COc1cc(O)c(NC(C)=O)c2nonc12
IC50 [6]: 7.24 µM (active)
IC50 [7]: 74.2 µM (active)
IC50 [8]: 14.6 µM (active)
IC50 [9]: 8.37 µM (active)

Nc1cc(O)c2[nH]cnc2n1
IC50 [10]: 33.6 µM (inactive)

Cc1ccc(Cn2cc(C=O)c(-c3ccc(C)cc3)n2)cc1
IC50 [11]: > 80 µM (inactive)
IC50 [12]: > 80 µM (inactive)
IC50 [13]: 73.9 µM (inactive)

Oc1ccc(O)c2c(O)cccc12
AC50 [14]: 39.8 µM (inconclusive)
